Source: US7611856B2 (priority 2003, dated 2009)

Tested on: BoNT
Assay type: biochemical, Clostridium botulinum

In the case of “(SNRTRIDQGNQRATRNleL)4K2KC(beta)A [Substrate 39]”, the “specific turnover over unspecific protease background cleavage reactions” value was “shown to increase the specific turnover”.
